The results in this text go back to US6534525B1, “2-substituted piperidine analogs and their use as subtype-selective NMDA receptor antagonists” (Warner-Lambert & Company, priority 1995, dated 2003).

The target in data set [1] is NMDA receptor subunits 1A/2B (NR1A+NR2B) (Rattus norvegicus, UniProt P35439+Q00960). The data set is described as follows: Electrophysiological assay at cloned NMDA receptor subunits expressed in Xenopus oocytes, 1A/2B. It is filed as cell-based. On the procedure:
(§1) Electrophysiological Assays at NMDA Receptor Subunits
(§2) The clones were transformed into appropriate host bacteria and plasmid preparations were made with conventional DNA purification techniques. A sample of each clone was linearized by restriction enzyme digestion and cRNA was synthesized with T3 RNA polymerase. The cRNA was diluted to 400 ng/μl and stored in 1 μl aliquots at −80° C. until injection.
(§3) The Xenopus oocyte Expression System
(§4) Follicle-enclosed oocytes were micro-injected with 1:1 mixtures of cRNA:NR1A+NR2A, 2B, 2C or 2D; injecting ˜2,5, or 20 ng of RNA encoding each receptor subunit. NR1A encoding cRNA was injected alone at ˜20 ng. Oocytes were stored in Barth's medium containing (in mM):NaCl, 88; KCl, 1; CaCl2, 0.41; Ca(NO3)2, 0.33; MgSO4, 0.82 NaHCO3, 2.4; HEPES 5, pH 7.4, with 0.1 mg/ml gentamicin sulphate. While oocytes were still surrounded by enveloping ovarian tissues the Barth's medium was supplemented with 0.1% bovine serum.
(§5) Electrical recordings were made using a conventional two-electrode voltage clamp (Dagan TEV-200) over periods ranging between 3-14 days following injection. […] Drugs were applied by bath perfusion. Using oocytes expressing different subunit combinations of NMDA receptor, NMDA currents were activated by co-application of glutamate and glycine. Inhibitory potency of the novel antagonists was assessed on responses elicited by fixed concentrations of glutamate and glycine, by measuring reductions in current induced by progressively increasing concentrations of antagonists.
(§6) Concentration-inhibition curves were fit with equation 1.
(§7) in which Icontrol is the current evoked by agonists alone, pIC50=−log IC50, IC50 is the concentration of antagonist that produces half maximal inhibition, and n is the slope factor. […] For incomplete curves analysis by fitting was unreliable and IC50 values were calculated by simple regression over linear portions of the curves (Origin: Microcal Software).

For data set [2], the target named is NMDA receptor subunits 1A/2C (NR1A+NR2C) (Rattus norvegicus, UniProt P35439+Q00961). The data set is described as follows: Electrophysiological assay at cloned NMDA receptor subunits expressed in Xenopus oocytes, 1A/2C. It is filed as cell-based. On the procedure:
as §1, §2, §3, §4, §5, §6, §7

In data set [3] the target is NMDA receptor subunits 1A/2A (NR1A+NR2A) (Rattus norvegicus, UniProt P35439+Q00959). The data set is described as follows: Electrophysiological assay at cloned NMDA receptor subunits expressed in Xenopus oocytes, 1A/2A. It is filed as cell-based. On the procedure:
as §1, §2, §3, §4, §5, §6, §7

Data set [4] deals with maximal electroshock-induced seizures. The data set is described as follows: Maximal electroshock-induced seizures (MES). It counts as in vivo, mice. The following applies: Mus musculus. As to the method: Maximal Electroshock-induced Seizures
Seizures were induced by application of current (50 mA, 60 pulses/sec, 0.8 sec pulse width, 1 sec duration, d.c.) through saline-coated corneal electrodes using a Ugo Basile ECT device (Model 7801). […] A tonic seizure was defined as a hindlimb extension in excess of 90 degrees from the plane of the body. Results were treated in a quantal manner.

The target of data set [5] is NMDA receptor subunits 1A/2D (NR1A+NR2D) (Rattus norvegicus, UniProt P35439+Q62645). The data set is described as follows: Electrophysiological assay at cloned NMDA receptor subunits expressed in Xenopus oocytes, 1A/2D. The following applies: two-electrode voltage clamp, currents activated by glutamate and glycine. It is filed as cell-based. The text has this:
Electrophysiological Assays at NMDA Receptor Subunits […]
cDNA clones encoding the NR1A, NR2A, NR2B, NR2C and NR2D rat NMDA receptor subtypes were provided by Dr. P. H. Seeburg (see, Morivoshi et al., Nature (Lond.) 354:31-37 (1991); Kutsuwada et al., Nature (Lond.) 358:36-41 (1992) Monyer et al., Science (Washington. D.C.) 256:1217-1221 (1992); Ikeda et al., FEBS Lett. 313:34-38 (1992); Ishii et al., J. Biol. Chem. 268:2836-2843 (1993) for details of these clones or their mouse homologs). The clones were transformed into appropriate host bacteria and plasmid preparations were made with conventional DNA purification techniques. A sample of each clone was linearized by restriction enzyme digestion and cRNA was synthesized with T3 RNA polymerase. The cRNA was diluted to 400 ng/μl and stored in 1 μl aliquots at −80° C. until injection.
The Xenopus oocyte Expression System […]
Electrical recordings were made using a conventional two-electrode voltage clamp (Dagan TEV-200) over periods ranging between 3-14 days following injection. […] Inhibitory potency of the novel antagonists was assessed on responses elicited by fixed concentrations of glutamate and glycine, by measuring reductions in current induced by progressively increasing concentrations of antagonists. […]

Where [6] appears, read: cloned rat NMDA receptor in Xenopus oocytes, two-electrode voltage clamp, currents activated by glutamate and glycine, read-out: Subunits (IC50(μM)) 1A/2B.
Setting [7] is: cloned rat NMDA receptor in Xenopus oocytes, two-electrode voltage clamp, currents activated by glutamate and glycine, read-out: Subunits (IC50(μM)) 1A/2C.
[8] abbreviates: cloned rat NMDA receptor in Xenopus oocytes, two-electrode voltage clamp, currents activated by glutamate and glycine, read-out: Subunits (IC50(μM)) 1A/2A.

Like-named read-outs stand apart in the source and are kept apart here.

Sequence of NMDA receptor subunits 1A/2A (NR1A+NR2A) (Q00959 23-1464, other chains not shown): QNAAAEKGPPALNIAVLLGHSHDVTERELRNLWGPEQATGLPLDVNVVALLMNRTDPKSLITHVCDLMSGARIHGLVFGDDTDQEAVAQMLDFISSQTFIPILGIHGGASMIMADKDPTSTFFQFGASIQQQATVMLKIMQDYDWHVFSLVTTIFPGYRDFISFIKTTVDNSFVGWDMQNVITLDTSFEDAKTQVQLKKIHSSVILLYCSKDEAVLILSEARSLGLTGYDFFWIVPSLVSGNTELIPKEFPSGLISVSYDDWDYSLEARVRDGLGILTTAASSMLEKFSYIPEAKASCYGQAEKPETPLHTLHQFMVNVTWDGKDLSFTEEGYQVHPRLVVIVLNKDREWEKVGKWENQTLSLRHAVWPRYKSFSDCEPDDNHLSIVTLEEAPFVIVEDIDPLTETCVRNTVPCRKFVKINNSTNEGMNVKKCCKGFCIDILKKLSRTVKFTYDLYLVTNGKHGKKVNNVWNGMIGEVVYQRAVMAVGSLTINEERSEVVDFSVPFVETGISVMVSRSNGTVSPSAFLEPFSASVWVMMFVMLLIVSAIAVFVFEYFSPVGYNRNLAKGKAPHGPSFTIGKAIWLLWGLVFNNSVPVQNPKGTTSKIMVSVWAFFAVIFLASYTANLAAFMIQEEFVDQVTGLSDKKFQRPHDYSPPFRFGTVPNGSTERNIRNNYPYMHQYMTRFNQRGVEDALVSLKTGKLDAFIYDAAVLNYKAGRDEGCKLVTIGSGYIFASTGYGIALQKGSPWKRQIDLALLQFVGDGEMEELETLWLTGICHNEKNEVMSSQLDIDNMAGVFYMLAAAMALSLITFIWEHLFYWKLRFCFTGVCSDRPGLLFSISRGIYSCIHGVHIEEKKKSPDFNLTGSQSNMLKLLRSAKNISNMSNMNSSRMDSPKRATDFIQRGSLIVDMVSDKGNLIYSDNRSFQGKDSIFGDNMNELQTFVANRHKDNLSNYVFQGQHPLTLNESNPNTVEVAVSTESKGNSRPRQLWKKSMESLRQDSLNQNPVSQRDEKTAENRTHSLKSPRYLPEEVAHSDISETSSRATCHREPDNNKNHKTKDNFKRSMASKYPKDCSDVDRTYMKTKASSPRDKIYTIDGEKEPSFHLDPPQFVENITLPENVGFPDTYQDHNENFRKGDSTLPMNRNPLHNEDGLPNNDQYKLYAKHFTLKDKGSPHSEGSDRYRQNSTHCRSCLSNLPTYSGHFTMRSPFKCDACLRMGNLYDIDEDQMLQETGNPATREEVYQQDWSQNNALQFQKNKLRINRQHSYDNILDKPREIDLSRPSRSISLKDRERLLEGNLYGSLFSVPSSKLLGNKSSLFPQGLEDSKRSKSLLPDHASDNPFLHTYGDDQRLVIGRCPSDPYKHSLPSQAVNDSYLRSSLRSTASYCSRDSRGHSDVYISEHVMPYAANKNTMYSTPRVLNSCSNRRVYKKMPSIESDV
Sequence of NMDA receptor subunits 1A/2B (NR1A+NR2B) (Q00960 27-1482, other chains not shown): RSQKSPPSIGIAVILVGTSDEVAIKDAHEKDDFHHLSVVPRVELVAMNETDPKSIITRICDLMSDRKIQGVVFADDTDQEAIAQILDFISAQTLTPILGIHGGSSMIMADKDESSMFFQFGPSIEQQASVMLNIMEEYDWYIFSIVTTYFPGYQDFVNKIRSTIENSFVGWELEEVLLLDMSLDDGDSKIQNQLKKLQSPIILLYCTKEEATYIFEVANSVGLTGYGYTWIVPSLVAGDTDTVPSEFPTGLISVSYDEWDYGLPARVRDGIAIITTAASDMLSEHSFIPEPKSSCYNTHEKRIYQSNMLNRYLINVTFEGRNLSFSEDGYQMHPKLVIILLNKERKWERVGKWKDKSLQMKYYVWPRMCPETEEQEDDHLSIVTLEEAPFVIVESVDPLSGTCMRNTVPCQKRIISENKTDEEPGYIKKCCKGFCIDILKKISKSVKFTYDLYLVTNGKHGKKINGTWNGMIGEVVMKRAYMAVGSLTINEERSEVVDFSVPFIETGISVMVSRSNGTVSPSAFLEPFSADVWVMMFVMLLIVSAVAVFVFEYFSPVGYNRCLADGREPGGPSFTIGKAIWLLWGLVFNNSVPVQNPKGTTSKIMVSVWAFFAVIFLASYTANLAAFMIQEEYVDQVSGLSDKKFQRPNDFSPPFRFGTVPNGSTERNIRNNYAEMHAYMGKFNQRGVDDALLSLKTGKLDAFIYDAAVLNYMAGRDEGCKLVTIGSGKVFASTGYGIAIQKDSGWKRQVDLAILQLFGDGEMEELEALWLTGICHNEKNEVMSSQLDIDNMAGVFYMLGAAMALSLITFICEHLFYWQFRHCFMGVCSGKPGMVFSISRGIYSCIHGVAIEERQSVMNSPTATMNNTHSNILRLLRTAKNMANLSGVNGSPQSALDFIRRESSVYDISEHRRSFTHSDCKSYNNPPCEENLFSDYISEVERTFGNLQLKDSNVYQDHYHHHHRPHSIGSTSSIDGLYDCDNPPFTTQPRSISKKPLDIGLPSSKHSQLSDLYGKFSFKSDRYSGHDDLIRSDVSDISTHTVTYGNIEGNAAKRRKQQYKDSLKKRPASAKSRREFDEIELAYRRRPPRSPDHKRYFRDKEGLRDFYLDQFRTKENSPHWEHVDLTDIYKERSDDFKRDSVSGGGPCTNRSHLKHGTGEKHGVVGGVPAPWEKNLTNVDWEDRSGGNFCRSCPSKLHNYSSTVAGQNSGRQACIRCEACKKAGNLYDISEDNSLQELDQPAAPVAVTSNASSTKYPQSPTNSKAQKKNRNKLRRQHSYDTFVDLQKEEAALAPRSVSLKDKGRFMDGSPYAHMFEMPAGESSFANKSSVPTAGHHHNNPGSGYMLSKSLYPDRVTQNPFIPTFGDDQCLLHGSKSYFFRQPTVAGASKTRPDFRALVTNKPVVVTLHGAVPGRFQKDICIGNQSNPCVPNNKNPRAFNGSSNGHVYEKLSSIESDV
Sequence of NMDA receptor subunits 1A/2C (NR1A+NR2C) (Q00961 20-1237, other chains not shown): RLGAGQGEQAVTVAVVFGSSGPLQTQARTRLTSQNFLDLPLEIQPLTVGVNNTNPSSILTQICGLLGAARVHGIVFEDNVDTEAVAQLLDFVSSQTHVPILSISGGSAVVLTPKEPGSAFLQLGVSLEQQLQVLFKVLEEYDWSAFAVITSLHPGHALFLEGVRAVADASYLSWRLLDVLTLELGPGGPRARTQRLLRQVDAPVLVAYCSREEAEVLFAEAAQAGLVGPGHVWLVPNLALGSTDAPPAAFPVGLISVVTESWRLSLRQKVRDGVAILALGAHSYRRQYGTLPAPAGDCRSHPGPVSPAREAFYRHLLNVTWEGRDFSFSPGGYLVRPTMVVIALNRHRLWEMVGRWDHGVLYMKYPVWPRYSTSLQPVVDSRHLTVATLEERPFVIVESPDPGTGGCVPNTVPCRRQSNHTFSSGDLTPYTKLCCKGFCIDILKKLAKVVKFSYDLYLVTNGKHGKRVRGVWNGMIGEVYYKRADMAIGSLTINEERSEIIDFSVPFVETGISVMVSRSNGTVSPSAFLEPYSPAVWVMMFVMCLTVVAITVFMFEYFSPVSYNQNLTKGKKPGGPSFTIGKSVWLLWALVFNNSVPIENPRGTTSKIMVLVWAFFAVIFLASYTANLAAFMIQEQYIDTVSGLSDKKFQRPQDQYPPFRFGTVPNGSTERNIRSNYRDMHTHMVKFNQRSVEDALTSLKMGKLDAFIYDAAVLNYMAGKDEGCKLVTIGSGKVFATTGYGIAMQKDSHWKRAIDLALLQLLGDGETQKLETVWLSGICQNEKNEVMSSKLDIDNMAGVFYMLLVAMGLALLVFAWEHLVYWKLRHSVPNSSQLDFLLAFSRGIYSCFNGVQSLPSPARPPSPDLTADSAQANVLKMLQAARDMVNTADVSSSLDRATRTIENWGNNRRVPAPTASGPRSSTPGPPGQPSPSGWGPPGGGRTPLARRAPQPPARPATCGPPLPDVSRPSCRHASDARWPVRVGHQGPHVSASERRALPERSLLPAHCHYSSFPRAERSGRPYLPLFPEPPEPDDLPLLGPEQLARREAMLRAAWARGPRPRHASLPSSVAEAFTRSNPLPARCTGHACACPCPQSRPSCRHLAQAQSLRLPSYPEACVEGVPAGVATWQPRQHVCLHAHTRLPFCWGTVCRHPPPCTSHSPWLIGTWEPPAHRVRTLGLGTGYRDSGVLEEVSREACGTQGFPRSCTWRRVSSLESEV

For the compound `c1ccc(CCCCN2CCCCC2Cc2ccccc2)cc1` (centres unmarked) [Example 5, 2-Benzyl-1-(4-phenylbutyl)piperidine], the IC50 came out at 8 µM in data set [1] (setting [6]), 55 µM in data set [2] (setting [7]) and 5 µM in data set [3] (setting [8]). The ED50 in data set [4] (read-out: MES (ED50) (mg/kg)) came out at 4 mg/kg.
`Br.c1ccc(CC2CCCCN2CCCOc2ccccc2)cc1` (centres unmarked) [Example 7, 2-Benzyl-1-(3-phenoxypropyl)piperidine hydrobromide] had a melting point of 119 to 121 °C. Moreover, the IC50 in data set [1] (setting [6]) worked out at 12 µM. Further, the IC50 in data set [2] (setting [7]) worked out at 45 µM. Also, the IC50 in data set [3] (setting [8]) was 4 µM. The ED50 in data set [4] (read-out: MES (ED50) (mg/kg)) came to 2.5 mg/kg.
Regarding `c1ccc(CC2CCCCN2CCCCOc2ccccc2)cc1` (centres unmarked) [Example 8, 2-Benzyl-1-(4-phenoxybutyl)piperidine], the IC50 is 8 µM in data set [1] (setting [6]), 45 µM in data set [2] (setting [7]) and 3 µM in data set [3] (setting [8]). In addition, the ED50 in data set [4] (read-out: MES (ED50) (mg/kg)) stood at 4 mg/kg.
For `CCOc1ccccc1OCC1CCCCN1CCCOc1ccccc1` (centres unmarked) [Example 17, 2-[(2-Ethoxy)phenyoxy]methyl-1-(3-phenoxy)propylpiperidine], the IC50 in data set [1] (setting [6]) was 35 µM; in data set [5] it was over 300 µM; in data set [2] (setting [7]), 110 µM; in data set [3] (setting [8]) it was 13 µM. In data set [4] (mice, tonic hindlimb extensor response, 50 mA corneal electrodes, read-out: MES (ED50)), the ED50 worked out at 1 mg/kg.
Regarding `Cc1ccccc1OCC(O)CN1CCCCC1Cc1ccccc1` (centres unmarked) [Example 18, 2-Benzyl-1-[2-hydroxy-3-(2-methyl)phenoxy]propylpiperidine], the IC50 in data set [1] (setting [6]) was 50 µM; in data set [5], over 300 µM; in data set [2] (setting [7]), over 100 µM; in data set [3] (setting [8]) it was 23 µM.
Take `Cl.Fc1ccc(OCCN2CCCCC2Cc2ccc(Cl)cc2)cc1` (centres unmarked) [Example 24, 2-(4-Chlorobenzyl)-1-(2-(4-fluorophenoxy)ethyl)piperidine hydrochloride]: the melting point is 163 to 165 °C. Further, the IC50 in data set [1] (setting [6]) amounted to 22 µM. For the same compound, the IC50 in data set [2] (setting [7]) is 160 µM. Further, in data set [3] (setting [8]), the IC50 turned out to be 55 µM.
Take `Cl.Oc1ccc(OCCN2CCCCC2Cc2ccc(Cl)cc2)cc1` (centres unmarked) [Example 25, 2-(4-Chlorobenzyl)-1-(2-(4-hydroxyphenoxy)ethyl)piperidine hydrochloride]: the melting point fell in the range of 229 to 230 °C. Besides, the IC50 in data set [1] amounted to 4.2 µM. In data set [2], the IC50 was 160 µM. The IC50 in data set [3] amounted to 62 µM.
On to `Cl.Oc1ccc(OCCN2CCCCC2Cc2ccccc2)cc1` (centres unmarked) [Example 26, 2-Benzyl-1-(2-(4-hydroxyphenoxy)ethyl)piperidine hydrochloride], for which the melting point lay in the range of 215 to 216 °C. Also, the IC50 in data set [1] was 15 µM. For the same compound, in data set [2], the IC50 was found to be 150 µM. In data set [3], the IC50 was 80 µM.
With `Cl.Oc1ccc(OCCCN2CCCCC2Cc2ccccc2)cc1` (centres unmarked) [Example 27, 2-Benzyl-1-(3-(4-hydroxyphenoxy)propyl)piperidine hydrochloride], the melting point fell in the range of 163 to 164 °C. In addition, in data set [1] (setting [6]), the IC50 turned out to be 16 µM. Further, the IC50 in data set [2] (setting [7]) was 40 µM. For the same compound, the IC50 in data set [3] (setting [8]) came out at 30 µM.
